Assay results published in patent US20250109141A1, “BRD4 PROTEIN DEGRADER COMPOUND, AND PREPARATION METHOD AND USE THEREOF” (Miracure Biotechnology Limited, priority 2023, published 2025).
Read-outs that look alike come from different tables or passages of the source.

Tests used:
BRD4 = BRD4 (Homo sapiens, UniProt O60885); assay: BRD4 degradation assay (Western-blot / Simple Western) in 22RV1; conditions: 22RV1 cells, target content as percentage of control (DMSO = 100%)
LNCaP = assay: Cell proliferation assay (CellTiterGlo, 72 h), LNCaP; assay type: cell-based; conditions: Homo sapiens, LNCap cells, 72 h compound treatment, read-out: LNCap ATP average IC50
Method: The cell line used was 22RV1 or LNCaP, and the medium was RPMI-1640 containing 10% FBS and antibiotics. All incubations were performed at 37° C. in a humidified carbon dioxide incubator.
On day 1, cells were digested with 0.25% trypsin (containing EDTA) and collected by centrifugation.
(§1) The cells were seeded in a 96-well plate (white wall/transparent bottom) at 5000 cells/well and cultured overnight.
(§2) On day 2, A stock solution of the compound at a concentration of 10 mM was subjected to an 8-fold serial dilution to obtain 8 concentration points. 2 μL of the compound solution at each concentration point was added to 98 μL of fresh medium, and the mixture was mixed homogeneously. Then, 5 μL of the compound solution diluted in the medium at each concentration point was added to 100 μL of overnight medium containing the cells, and 2 replicates were set for each concentration. The mixture was cultured for 72 h.
(§3) After 72 h of compound treatment, the plate was equilibrated to room temperature, 100 μL of CellTiterGlo (Promega) was added. The mixture was mixed homogeneously for 2 min, left to stand at room temperature for 10 min, and then read for luminescence values on a SpectraMax M5 microplate reader to evaluate cell viability. The positive control was 1% Tween-20 and the negative control was 0.1% DMSO. IC50 was generated by 4-parameter non-linear regression fitting in GraphPad Prism.

22RV1 = assay: Cell proliferation assay (CellTiterGlo, 72 h), 22RV1; assay type: cell-based; conditions: Homo sapiens, read-out: 22Rv1 ATP average IC50
Method: All incubations were performed at 37° C. in a humidified carbon dioxide incubator.
as §1, §2, §3

[1] = 22Rv1 cells, 72 h compound treatment, CellTiterGlo

Structure (SMILES)	BRD4 degradation of 22RV1 (200 nM 5 h) (BRD4)	IC50 (LNCaP)	IC50 (22RV1; [1])	IC50 (22RV1; 22Rv1, 72 h)
Cc1sc2c(c1C)C(c1ccc(/C=C/CNO)cc1)=N[C@@H](CC(=O)OC(C)(C)C)c1nnc(C)n1-2 [Compound 9011]	A (A<20%)	< 50 nM	< 50 nM	–
CONC/C=C/c1ccc(C2=N[C@@H](CC(=O)OC(C)(C)C)c3nnc(C)n3-c3sc(C)c(C)c32)cc1 [Compound 9065]	B (20%<B<50%)	< 50 nM	< 50 nM	–
Cc1sc2c(c1C)C(c1ccc(-c3ccc(CN)o3)cc1)=N[C@@H](CC(=O)OC(C)(C)C)c1nnc(C)n1-2 [Compound 9071]	C (50%<C<80)	50 to 200 nM	50 to 200 nM	–
COc1ccc2c(c1)C(c1ccc(/C=C/CNO)cc1)=N[C@@H](CC(=O)OC(C)(C)C)c1nnc(C)n1-2 [Compound 9077]	A (A<20%)	< 50 nM	–	< 50 nM
CONCC#Cc1ccc(C2=N[C@@H](CC(=O)OC(C)(C)C)c3nnc(C)n3-c3ccc(OC)cc32)cc1 [Compound 9078]	B (20%<B<50%)	< 50 nM	–	< 50 nM
CONC/C=C/c1ccc(C2=N[C@@H](CC(=O)OC(C)(C)C)c3nnc(C)n3-c3ccc(OC)cc32)cc1 [Compound 9079]	A (A<20%)	< 50 nM	–	< 50 nM
COc1ccc2c(c1)C(c1ccc(C#CCN)cc1)=N[C@@H](CC(=O)OC(C)(C)C)c1nnc(C)n1-2 [Compound 9080]	B (20%<B<50%)	50 to 200 nM	–	< 50 nM
Cc1sc2c(c1C)C(c1ccc(-c3ccc(CN)cc3)cc1)=NC(CC(=O)OC(C)(C)C)c1nnc(C)n1-2 (stereo not shown) [Compound 9084]	–	50 to 200 nM	200 to 500 nM	–
Cc1sc2c(c1C)C(c1ccc(-c3cccc(CN)c3)cc1)=NC(CC(=O)OC(C)(C)C)c1nnc(C)n1-2 (stereo not shown) [Compound 9085]	–	50 to 200 nM	> 500 nM	–
Cc1sc2c(c1C)C(c1ccc(-c3ccc(N)cc3)cc1)=NC(CC(=O)OC(C)(C)C)c1nnc(C)n1-2 (stereo not shown) [Compound 9086]	–	200 to 500 nM	200 to 500 nM	–
Cc1sc2c(c1C)C(c1ccc(-c3cccc(N)c3)cc1)=NC(CC(=O)OC(C)(C)C)c1nnc(C)n1-2 (stereo not shown) [Compound 9087]	–	200 to 500 nM	> 500 nM	–
Cc1sc2c(c1C)C(c1ccc(N3CC(=NO)C3)cc1)=N[C@@H](CC(=O)OC(C)(C)C)c1nnc(C)n1-2 [Compound 9090]	–	50 to 200 nM	> 500 nM	–
Cc1sc2c(c1C)C(c1ccc(C#CCN)cc1)=N[C@@H](CCOC(=O)C(C)(C)C)c1nnc(C)n1-2 [Compound 9091]	–	200 to 500 nM	–	50 to 200 nM
CC(=O)NOC/C=C/c1ccc(C2=N[C@@H](CC(=O)OC(C)(C)C)c3nnc(C)n3-c3sc(C)c(C)c32)cc1 [Compound 9094]	–	50 to 200 nM	50 to 200 nM	–
Cc1noc2c1-c1ccccc1C(c1ccc(/C=C/CNO)cc1)=N[C@H]2CC(=O)OC(C)(C)C [Compound 9095]	–	50 to 200 nM	50 to 200 nM	–
CONC/C=C/c1ccc(C2=N[C@@H](CC(=O)OC(C)(C)C)c3onc(C)c3-c3ccccc32)cc1 [Compound 9097]	–	> 500 nM	> 500 nM	–
Cc1noc2c1-c1ccccc1C(c1ccc(C#CCN)cc1)=N[C@H]2CC(=O)OC(C)(C)C [Compound 9098]	–	> 500 nM	> 500 nM	–
Cc1sc2c(c1C)C(c1ccc(C#CCN)cc1)=N[C@@H](CC(=O)OC1(C)CC1)c1nnc(C)n1-2 [Compound 9103]	B (20%<B<50%)	< 50 nM	–	< 50 nM
CNC(=O)C#Cc1ccc(C2=N[C@@H](CC(=O)OC(C)(C)C)c3nnc(C)n3-c3sc(C)c(C)c32)cc1 [Compound 9104]	D (80%<D<100%)	–	< 50 nM	–
CC(=O)N(O)C/C=C/c1ccc(C2=N[C@@H](CC(=O)OC(C)(C)C)c3nnc(C)n3-c3sc(C)c(C)c32)cc1 [Compound 9109]	C (50%<C<80)	50 to 200 nM	200 to 500 nM	–
Cc1sc2c(c1C)C(c1ccc(/C=C/CNC(=N)N)cc1)=N[C@@H](CC(=O)OC(C)(C)C)c1nnc(C)n1-2 [Compound 9110]	–	> 500 nM	> 500 nM	–
Cc1sc2c(c1C)C(c1ccc(C#CCNC(=N)NO)cc1)=N[C@@H](CC(=O)OC(C)(C)C)c1nnc(C)n1-2 [Compound 9111]	D (80%<D<100%)	50 to 200 nM	200 to 500 nM	–

Structure (SMILES)	BRD4 degradation of 22RV1 (200 nM 5 h) (BRD4)	IC50 (LNCaP)	IC50 (22RV1; [1])	IC50 (22RV1; 22Rv1, 72 h)
Cc1sc2c(c1C)C(c1ccc(C#CCN)cc1)=N[C@@H](CC(=O)OCC1(C)COC1)c1nnc(C)n1-2 [Compound 9112]	D (80%<D<100%)	50 to 200 nM	–	50 to 200 nM
Cc1sc2c(c1C)C(c1ccc(/C=C/CNC(=N)NO)cc1)=N[C@@H](CC(=O)OC(C)(C)C)c1nnc(C)n1-2 [Compound 9114]	C (50%<C<80)	–	50 to 200 nM	–
COC(=O)C=Cc1ccc(C2=N[C@@H](CC(=O)OC(C)(C)C)c3nnc(C)n3-c3sc(C)c(C)c32)cc1 [Compound 9118]	–	< 50 nM	200 to 500 nM	–
Cc1noc2c1-c1ccccc1C(c1ccc(/C=C/CN)cc1)=N[C@H]2CC(=O)OC(C)(C)C [Compound 9122]	–	50 to 200 nM	> 500 nM	–
Cc1sc2c(c1C)C(c1ccc(C3CC3CNO)cc1)=N[C@@H](CC(=O)OC(C)(C)C)c1nnc(C)n1-2 (stereo partly shown) [Compound 9123]	–	< 50 nM	< 50 nM	–
Cc1sc2c(c1C)C(c1ccc(/C=C/C=N/O)cc1)=N[C@@H](CC(=O)OC(C)(C)C)c1nnc(C)n1-2 [Compound 9132-A]	D (80%<D<100%)	< 50 nM	50 to 200 nM	–
Cc1sc2c(c1C)C(c1ccc(/C=C/C=N\O)cc1)=N[C@@H](CC(=O)OC(C)(C)C)c1nnc(C)n1-2 [Compound 9132-B]	D (80%<D<100%)	50 to 200 nM	50 to 200 nM	–
Cc1sc2c(c1C)C(c1ccc(C#CCN)cc1)=N[C@@H](Cc1nccs1)c1nnc(C)n1-2 [Compound 9135]	B (20%<B<50%)	< 50 nM	–	50 to 200 nM
Cc1sc2c(c1C)C(c1ccc(/C=C/CN)cc1)=N[C@@H](Cc1nccs1)c1nnc(C)n1-2 [Compound 9136]	C (50%<C<80)	< 50 nM	–	< 50 nM
Cc1sc2c(c1C)C(c1ccc(C3CC3CN)cc1)=N[C@@H](CC(=O)OC(C)(C)C)c1nnc(C)n1-2 (stereo partly shown) [Compound 9138]	–	> 500 nM	> 500 nM	–
Cc1noc2c1-c1ccccc1C(c1ccc(C#CCN)cc1)=N[C@H]2Cc1nccs1 [Compound 9141]	–	> 500 nM	> 500 nM	–
CC(=O)ONC/C=C/c1ccc(C2=N[C@@H](CC(=O)OC(C)(C)C)c3nnc(C)n3-c3sc(C)c(C)c32)cc1 [Compound 9144]	–	< 50 nM	< 50 nM	–
COC(=O)C[C@@H]1N=C(c2ccc(Cl)cc2)c2c(sc(C(=O)NCCOCCNC(=O)C[C@@H]3N=C(c4ccc(C#CCN)cc4)c4c(sc(C)c4C)-n4c(C)nnc43)c2C)-n2c(C)nnc21 [Compound 9157]	–	200 to 500 nM	200 to 500 nM	–
COc1ccc2c(c1)C(c1ccc(C#CCNC(=N)N)cc1)=N[C@@H](CC(=O)OC(C)(C)C)c1nnc(C)n1-2 [Compound 9159]	–	> 500 nM	–	> 500 nM
Cc1sc2c(c1C)C(c1ccc(/C=C/CN)cc1)=N[C@@H](Cc1nnc(C(C)C)o1)c1nnc(C)n1-2 [Compound 9168]	–	< 50 nM	< 50 nM	–
Cc1sc2c(c1C)C(c1ccc(/C=C/CNS(C)(=O)=O)cc1)=N[C@@H](CC(=O)OC(C)(C)C)c1nnc(C)n1-2 [Compound 9200]	–	50 to 200 nM	50 to 200 nM	–
COc1ccc2c(c1)C(c1ccc3c(c1)NC(=O)CC3)=N[C@@H](CC(=O)OC(C)(C)C)c1nnc(C)n1-2 [Compound 9211]	–	> 500 nM	–	> 500 nM
COC(=O)C[C@@H]1N=C(c2ccc(/C=C/CNO)c(F)c2)c2cc(OC)ccc2-n2c(C)nnc21 [Compound 9213]	–	< 50 nM	–	< 50 nM
COc1ccc2c(c1)C(c1ccc(/C=C/CNO)c(F)c1)=N[C@@H](CC(=O)O)c1nnc(C)n1-2 [Compound 9214]	–	> 500 nM	–	> 500 nM
COc1ccc2c(c1)C(c1ccc(/C=C/C=N\O)cc1)=N[C@@H](CC(=O)OC(C)(C)C)c1nnc(C)n1-2 [Compound 9221]	–	200 to 500 nM	–	> 500 nM
COc1ccc2c(c1)C(c1ccc(/C=C/C=N/O)cc1)=N[C@@H](CC(=O)OC(C)(C)C)c1nnc(C)n1-2 [Compound 9222]	–	50 to 200 nM	–	200 to 500 nM
CCNC(=O)C[C@@H]1N=C(c2ccc(Cl)cc2)c2cc(OC)ccc2-n2c(C)nnc21 [I-BET-762, reference compound]	–	> 500 nM	> 500 nM	–
